From patent US20260286297A1, “METHOD FOR PRODUCING GROUP 2 INNATE LYMPHOID CELLS” (KYOTO UNIVERSITY, priority 2023, published 2026)

How the values were obtained:
[1] = system: hematopoietic precursor cells (derived from iPS cell line 1231A2); test: Differentiation induction from iPS cell-derived HPCs to ILC2s, flow cytometry (Experiments 2 and 4); type: cell-based, human; settings: line 1231A2 HPCs; for induction of ILC2-like cell populations (lineage marker-negative, GATA3-expressing, capacity to produce IL-13): CDK8 inhibitor in medium B Day 6-12 (Senexin A 3 μM; CCT-251921 100 nM), flow cytometry after 12 days; for differentiation induction into ILC2-like cells containing IL-10-producing cells: Condition 2 plus CDK8 inhibitor in medium B Day 6-12 (Compounds 1-3 1 μM, Compound 4 10 μM)
Protocol: The HPCs prepared from the iPS cells in Experiment 1 were cultured to be differentiation-induced into ILC2s. Specifically, 2500 to 20000 HPC stock cells prepared from the line 1231A2 were seeded in a 96-well plate (Corning, 3799 or Iwaki, 3860-096) coated with 2.5 μg/mL Fc-DLL4 and 2.5 μg/mL RetroNectin™ (Day 0) and cultured at 37° C. in a 5% CO2 atmosphere under the medium conditions shown below for 12 days to be differentiation-induced. In the differentiation induction culture for 12 days, 100 μL of medium was added on Day 3, followed by medium replacement on Day 6 and Day 9. If the cells in each culture well are confluent after the medium replacement on Day 6 and Day 9, the cells in the well were suspended, 2-fold diluted, and reseeded in a new 96-well plate. In the cases of Conditions 2 to 4, IL-2 (BioLegend, 589108 or PeproTech, 200-02) was added to medium A at 200 U/mL. In the case of Condition 3, Senexin A (Selleck, S8520) was added to medium B at 3 μM as CDK8 inhibitor. In the case of Condition 4, CCT-251921 (MedChemExpress, HY-19984) was added to medium B at 100 nM as CDK8 inhibitor. The differentiated cells cultured as described above were stimulated at 37° C. in a 5% CO2 atmosphere for 4 to 6 hours using the following: • IL-1β (PeproTech, 200-01B), final concentration: 10 ng/ml. • IL-2, final concentration: 20 ng/ml. • IL-7, final concentration: 50 ng/ml. • IL-23 (BioLegend, 574106), final concentration: 20 ng/ml • IL-25 (IL-17E) (PeproTech, 200-24), final concentration: 20 ng/ml • eBioscience™ Cell Stimulation Cocktail (plus Protein transport inhibitor) (Thermo Fisher Scientific, 00-4975-03) The stimulated cells were subsequently stained and analyzed with an LSRFortessa™ Cell Analyzer (BD Biosciences) by flow cytometry. […] The present experiment confirmed the differentiation induction into ILC2s using multiple CDK8 inhibitors having different structures.

[2] = system: HPCs derived from the line Ff-101s04; test: Differentiation induction from iPS cell-derived HPCs to ILC2s, different iPS cell line (Experiment 3); type: cell-based, human; settings: HPCs from iPS line Ff-101s04; Condition 3 (3 μM Senexin A), Condition 4 (100 nM CCT-251921)
[3] = system: human cord blood-derived CD34-positive cells; test: Differentiation induction from human cord blood-derived CD34-positive HPCs to ILC2s (Experiment 5); type: cell-based; settings: Condition 3 (3 μM Senexin A), flow cytometry on Day 19
From the text: In order to ascertain the versatility of the method for differentiation induction in Experiment 2, the present experiment confirmed the differentiation induction from HPCs derived from the human body to ILC2s. Specifically, ILC2s were differentiation-induced by culturing purchased human cord blood-derived CD34-positive cells (Lonza, 2C-101) with the methods of Condition 1, Condition 2, and Condition 3 in Experiment 2. In the present experiment, the medium was also replaced with the same medium as on Days 6 to 12 on Day 12 and Day 15 of the culture, and the cells in each culture well were 2-fold diluted and reseeded in the case where the cells in the culture well were confluent.

[4] = system: iPS cell-derived HPCs differentiation culture; test: Concentrations of cytokines in differentiation culture supernatant containing iPS cell-derived ILC2s (Experiment 6); type: cell-based, human; settings: Day 12 culture supernatant; Condition 3 versus Conditions 1 and 2
From the text: The culture supernatant of Day 12 of the culture was collected that was differentiation-induced under “Condition 1”, “Condition 2”, and “Condition 3” described in Experiment 2, followed by the quantification of concentrations of IL-10, IL-5, and amphiregulin in the culture supernatant with the following kits, respectively. Amphiregulin is a cytokine that plays a central role in the capacity of ILC2s to repair tissue. It is conceivable that ILC2s having the capacity to repair tissue were obtained in the case where amphiregulin increased in concentration. • IL-10: Human IL-10 immunoassay kit (PerkinElmer, AL218C) • IL-5: Human IL-5 immunoassay kit (PerkinElmer, AL267C) • Amphiregulin: Human Amphiregulin Quantikine ELISA Kit (R&D Systems, DAR00)
IL-10 and IL-5 were measured with an Envision (Revvity). Amphiregulin was measured with a Powerscan4 (DS pharma biomedical Co., LTD.).

Row | Compound | induction of ILC2-like cell populations (lineage marker-negative, GATA3-expressing, capacity to produce IL-13) [1] | differentiation induction into ILC2-like cells containing IL-10-producing cells [1] | capacity of the induced ILC2-like cells to produce IL-10 ([1]; Condition 3, 3 μM Senexin A in medium B Day 6-12) | differentiation induction of ILC2-like cells containing IL-10-producing cells [2] | differentiation induction of ILC2-like cells containing IL-10-producing cells [3] | production of IL-5 in the culture supernatant [4] | production of IL-10 in the culture supernatant [4] | production of amphiregulin in the culture supernatant [4]
1 | N#Cc1ccc2ncnc(NCCc3ccccc3)c2c1 [Senexin A] | ILC2-like cell populations were induced | observed | had the capacity to produce IL-10 | ILC2-like cells containing IL-10-producing cells were differentiation-induced | ILC2-like cells containing IL-10-producing cells were differentiation-induced | enhancement of production | enhancement of production | enhancement of production
2 | Cn1ncc2cc(-c3cnc(N)c(Cl)c3N3CCC4(CCNC4=O)CC3)ccc21 [CCT-251921] | ILC2-like cell populations were induced | observed |  | ILC2-like cells containing IL-10-producing cells were differentiation-induced |  |  |  | 
